Laboratory results taken from PMC10182977 (Nature Communications, 2023).

B1: Xenopus laevis cholinephosphotransferase-1 (enzyme, UniProt Q4KLV1 1-402, looked up)
chain: MGLAEGLAARMAPHLYIQEPLSAQQLKKLEEHKYSASGRSLVEPPMQVYWNWLVEKVPLWLAPNTITMVGLLLNVLSTLILVCYCPTATEGAPFWTYLLCAIGLFVYQSLDAIDGKQARRTNSSSPLGEMFDHGCDSISIVFVNLGTIAAVRLGTLPGWMFYCCFVGMFMFYCAQWQTYVCGTLKFGIIDVTELQISVTVMFLMTAVCGPELWDYEIPFTGLPMKTIPLLGIIGGTVYSCSNYFRVILSGGVGKNGSTVAGTSVLSPGLHIGLVLLLALMIYKKSTTNLFLQNPCLYTLAFGFVSAKITIKLVIAHMTKSEISLQDTAFIGPGLLFFNQYFNSFIDEYIVLWIAMVISFADLLRYCISVCLQIATHLRISVFRISSNQAAEQVQTQKQKLTD
notes: cholinephosphotransferase-1 (CHPT1) of Xenopus laevis, full length, codon-optimized gene; residues 20-383 are resolved in the cryo-EM models, the first 19 and the last 18 residues are not resolved; The His6 tag was cleaved with TEV protease; residues of the cleavage site may be left at the C-terminus; also called xlCHPT1; CHPT1; source: Hi Five (Trichoplusia ni) cells, baculovirus, purified (LMNG …)

Key:
[1] = molecular target: T1, xlCHPT1 (Xenopus laevis, UniProt Q4KLV1); test: cryo-EM structure, ~[…] Å; format: binding; settings: Mg2+ complex; 10 mM CDP and 0.5 mM DAG added; CDP-choline active site
T1 construct: gene chpt1; full-length, codon-optimized; C-terminal His6-tag cleaved with TEV protease; Hi Five (Trichoplusia ni) baculovirus; detergent-purified homodimer; residues 20-383 modelled
T1 sequence (Q4KLV1 1-402): B1 chain

[2] = molecular target: the molecule itself; test: cryo-EM structure; single-particle cryo-EM of purified xlCHPT1 in 20 mM HEPES, 150 mM NaCl, 2 mM BME, 4 mM MgCl2, 0.02% GDN; with 10 mM CDP-choline, or with 10 mM CDP and 0.5 mM DAG; refined with C2 symmetry

Molecule	cryo-EM structure, ~3.2 Å [1]	stoichiometry N [2]
Nc1ccn([C@@H]2O[C@H](COP(=O)(O)OP(=O)(O)O)[C@@H](O)[C@H]2O)c(=O)n1 [CDP]	xlCHPT1 in complex with CDP have been deposited in the PDB under the accession code 8ERO	
B1		2
